{"source": "patent US9556217B2", "about": "“Amphiphilic compounds” (WISCONSIN ALUMNI RESEARCH FOUNDATION, priority 2012, dated 2017)", "key": {"[1]": {"experiment": "Critical micelle concentration (fluorescent dye solubilization)", "type": "physicochemical", "description": "The “Critical Micelle Concentration” (CMC) refers to the concentration of a detergent (e.g., an amphiphile as described herein) in an aqueous solution at which the detergent molecules self-assemble into micelles. Below the CMC, detergents are mostly monomeric; above the CMC, micelle concentration increases linearly with detergent concentration. The CMC is dependent upon many factors and is detergent-specific. The CMC of a detergent can be determined experimentally by measuring the solubilization of a water-insoluble dye or fluorophore while varying the concentration of detergent. A CMC may also be determined by measuring the diminution of the surface tension of an aqueous solution as a function of detergent concentration (CMCs determined by either method correlate with each other). The CMC is determined by extrapolating the plot of solubilization vs. concentration (or surface tension vs. concentration) in the two linear regions above and below the CMC. Where the two lines intersect is the CMC. The CMC can also be determined by the method of Nugebauer, J. M. (1990), Methods in Enzymology, 182:239-253.\nThe four compounds were readily prepared on a multi-gram scale (see Examples 1 and 2 below, and FIGS. 13-15), as is necessary if they are to serve as research tools. All four are highly soluble in aqueous solution (>20 wt %) and have relatively low critical micelle concentrations (CMC; determined by fluorescent dye solubilization)."}, "[2]": {"experiment": "Hydrodynamic radius of micelles by dynamic light scattering", "type": "physicochemical", "settings": "Mean ± SD, n = 5", "description": "These values are somewhat smaller than the CMC of DDM, which indicates a strong tendency of the new agents to self-assemble, and which can be advantageous for IMP handling because detrimental levels of non-micellar amphiphile can be avoided. Table 1 provides the hydrodynamic radius (Rh) of the micelles formed by each amphiphile, as determined by dynamic light scattering (DLS). The micelles formed by GLC amphiphiles are slightly smaller than those formed by DDM, while the micelles formed by GDN are slightly larger."}, "[3]": {"target": "T1, wild type β2AR (β2AR WT) (Homo sapiens, UniProt P07550)", "T1 construct": "made in house; host or cells: Sf9 insect cells (baculovirus); lysed cells and membranes extracted directly with amphiphile", "T1 sequence (P07550 whole entry)": "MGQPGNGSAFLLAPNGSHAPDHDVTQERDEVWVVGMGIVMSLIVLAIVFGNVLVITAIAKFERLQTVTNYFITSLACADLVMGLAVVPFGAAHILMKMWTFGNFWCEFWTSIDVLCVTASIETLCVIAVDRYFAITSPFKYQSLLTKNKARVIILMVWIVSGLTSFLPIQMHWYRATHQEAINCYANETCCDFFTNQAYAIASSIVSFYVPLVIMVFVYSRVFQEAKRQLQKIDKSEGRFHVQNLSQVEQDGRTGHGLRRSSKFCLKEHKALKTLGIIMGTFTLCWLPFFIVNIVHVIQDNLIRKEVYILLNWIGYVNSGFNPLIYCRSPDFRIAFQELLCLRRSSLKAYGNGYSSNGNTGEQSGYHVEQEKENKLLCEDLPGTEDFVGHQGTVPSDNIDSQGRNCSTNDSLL", "experiment": "β2AR WT activity after extraction ([3H]-dihydroalprenolol binding)", "type": "biochemical", "description": "In the examples discussed above, conventional detergents such as DDM were used to extract IMPs from the membrane, and then in most cases the solution of detergent-solubilized protein was diluted with amphiphile-containing solutions to evaluate the new agents. With this approach it is possible that the small amount of residual conventional detergent could affect protein stability. To exclude this possibility, GLC-3 and GDN were used to extract wild type β2AR (β2AR WT) (Kobilka, Trends in Pharmacological Sciences 2011, 32, 213-218) from the membrane. Receptor activity was measured via a binding assay involving the antagonist [^3H]-dihydroalprenolol. […] GDN is therefore highly suitable for GPCR extraction.\n(§1) A gene encoding amino-terminally FLAG epitope tagged β2AR was expressed in Sf9 cells by baculovirus, with no ligand present during culture. Cells were infected at a density of 4×10^6 cells/mL and then cultured for 48 hours prior to harvesting by centrifugation. Cells were resuspended and lysed by osmotic shock with a low ionic strength buffer (20 mM Tris pH 7.5, 1 mM EDTA). The lysed cells were aliquoted 35 mg per aliquot, then frozen. For extraction tests, 300 μL of solubilization buffer (20 mM HEPES pH 7.5, 100 mM NaCl) containing each amphiphile was added to each aliquot, which was then homogenized by pipet followed by grinding with a glass dounce tissue homogenizer. After two-hour incubation at 4° C., samples were centrifuged at maximum speed in a tabletop microcentrifuge to pellet insoluble material. Supernatant was removed and assayed for protein concentration by DC protein assay (Bio-Rad).\nThe amount of functional receptor was quantified by incubation for 1 hour with 10 nM 3H dihydroalprenolol. Samples were then separated by gel filtration over G-50 resin and radioactivity was quantified by liquid scintillation. Nonspecific binding was measured in the presence of 10 μM alprenolol. Assays were performed in triplicate at time points indicated. G-50 filtration was performed in buffer containing 20 mM HEPES pH 7.5, 100 mM NaCl, 10-fold CMC of the detergent tested. All binding assays were performed with ice cold buffers."}, "[4]": {"test_system": "δ-opioid receptor-T4L fusion (δOR-T4L)", "experiment": "δOR-T4L activity after solubilization ([3H]-diprenorphine binding)", "type": "biochemical", "settings": "extracted with 1.0 wt % of amphiphile", "description": "We turned to a δ-opioid receptor-T4L fusion (δOR-T4L), another GPCR, to compare GDN with the recently reported amphiphile MNG-3 (P. S. Chae, et al., Nat. Methods 2010, 7, 1003-1008), which has proven to be essential for crystallization of several other GPCR constructs (Rasmussen, et al., Nature 2011, 469, 236-240; Rosenbaum, et al., Nature 2011, 469, 175-180; Rasmussen, et al., Nature 2011, 477, 540-541; Kruse, et al., Nature 2012, 482, 552-556; Haga, et al., Nature 2012, 482, 547-551). […] The ability of the new amphiphiles to stabilize membrane proteins thus allows for the ability to perform analyses and structural studies that could not be performed with other detergents such as DDM because harsher detergents (e.g., DDM) can remove important lipid moieties from the proteins, causing them to denature and rapidly loose activity.\nFLAG epitope tagged δOR-T4L was expressed in Sf9 insect cells using baculovirus particles generated by the pFastBac vector system (Invitrogen). Insect cells were infected and cultured as for the β2AR and cells were lysed by osmotic shock as done for cells expressing β2AR. Lysed cells were used for extraction tests by adding 40 mg of cells to 200 μL of solubilization buffer (20 mM HEPES pH 7.5, 100 mM NaCl) containing each amphiphile. […] The amount of functional receptor after solubilization was quantified by incubation for 1 hour with 10 nM 3H diprenorphine. […]"}, "[5]": {"target": "T2, CMP-Sia fusion protein bearing green fluorescent protein (GFP) (Mus musculus, UniProt Q61420)", "T2 construct": "made in house; host or cells: Saccharomyces cerevisiae FGY217", "experiment": "CMP-Sia-GFP fusion solubilization (fluorescence)", "settings": "1 wt %, 1 hr at 4° C., total fluorescence", "description": "(§2) The favorable MelB extraction performance of GDN led to the examination of this amphiphile for extraction of other IMPs. […] DDM and GDN were used to extract a CMP-Sia fusion protein bearing green fluorescent protein (GFP) at the C-terminus, after expression in Saccharomyces cerevisiae; the amount of solubilized protein was estimated by total fluorescence. GDN (2 wt %), DDM (1 wt %) and OG (1 wt %) gave ˜70%, ˜80% and ˜50% extraction yields, respectively.\n(§3) The procedure was performed according to the protocol reported by Chae and coworkers (Nat. Methods 2010, 7, 1003-1008).\nCMP-Sia was expressed as a fusion protein with a C-terminal GFP in FGY217 Saccharomyces cerevisiae cells. Cell lysis was conducted by using a cell disrupter (Constant Systems) and the protein samples were subjected to centrifugation at 15,000 g for 10 mins to remove unbroken cells and debris. Subsequently, the membranes were harvested by ultracentrifugation at 150,000 g for 45 min. The membranes were resuspended in 50 mM Tris-HCl (pH 7.6), 1 mM EDTA, 0.6 M sorbitol and the protein concentration was estimated using a BCA kit (Pierce). The membranes were incubated with OG or DDM at 1.0%, or GDN at 2.0% for 1 hr at 4° C. A fluorescence value was measured for each sample before and after ultracentrifugation at 150,000 g for 1 h. The solubilization efficiency was calculated via the fluorescence measurements of the soluble supernatant/the total sample."}, "[6]": {"target": "T3, β2AR WT (Homo sapiens, UniProt P07550)", "T3 construct": "made in house; host or cells: Sf9 insect cells (baculovirus); lysed cells and membranes extracted directly with amphiphile", "T3 sequence (P07550 whole entry)": "as above", "experiment": "Extraction of β2AR WT from insect cell membranes", "settings": "1 wt %; western blotting", "description": "as §2, §3\nas §1, with “Supernatant was removed and assayed for protein concentration by DC protein assay (Bio-Rad).” left out"}, "[7]": {"settings": "stated in the bR protocol; cited from earlier work"}}, "note": "Where two headings read alike, the source gives them in different places."}
{"smiles": "CO[C@@H]1CC[C@@]2(C)[C@H](CC[C@@H]3[C@@H]2CC[C@]2(C)[C@@H]([C@H](C)CCC(=O)NC(CO[C@@H]4OC(CO)C(O[C@@H]5OC(CO)[C@@H](O)[C@H](O)C5O)[C@@H](O)C4O)CO[C@@H]4OC(CO)[C@@H](O[C@H]5OC(CO)[C@@H](O)[C@H](O)C5O)[C@H](O)C4O)CC[C@@H]32)C1", "note": "(stereo partly drawn) [GLC-1]", "values": [{"measurement": "CMC", "setting": "[1]", "value": "~52", "unit": "µM"}, {"measurement": "CMC (wt %)", "setting": "[1]", "value": "~0.006", "unit": "wt %"}, {"measurement": "Rh (nm), hydrodynamic radius of micelles", "setting": "[2]", "value": "3.22 ± 0.03", "unit": "nm"}]}
{"smiles": "CO[C@@H]1CC[C@@]2(C)[C@H](CC[C@@H]3[C@@H]2CC[C@]2(C)C(C(C)CCCC(CO[C@@H]4OC(CO)C(O[C@@H]5OC(CO)[C@@H](O)[C@H](O)C5O)[C@@H](O)C4O)CO[C@@H]4OC(CO)[C@@H](O[C@H]5OC(CO)[C@@H](O)[C@H](O)C5O)[C@H](O)C4O)CC[C@@H]32)C1", "note": "(stereo partly drawn) [GLC-3]", "values": [{"measurement": "CMC", "setting": "[1]", "value": "~7.1", "unit": "µM"}, {"measurement": "CMC (wt %)", "setting": "[1]", "value": "~0.00077", "unit": "wt %"}, {"measurement": "Rh (nm), hydrodynamic radius of micelles", "setting": "[2]", "value": "3.27 ± 0.08", "unit": "nm"}, {"measurement": "β2AR WT initial activity", "setting": "[3]; extracted with 1 wt % or 2 wt % amphiphile, [3H]-dihydroalprenolol binding", "value": "initial activity similar to that of DDM"}, {"measurement": "β2AR WT activity over 72 hours", "setting": "[3]; solubilized samples stored at 4° C.", "value": "activity was maintained over 72 hours"}]}
{"smiles": "CCCCCCCCCCC(CCCCCCCCCC)(CO[C@@H]1O[C@H](CO)[C@@H](O[C@H]2O[C@H](CO)[C@@H](O)[C@H](O)[C@H]2O)[C@H](O)[C@H]1O)CO[C@@H]1O[C@H](CO)[C@@H](O[C@H]2O[C@H](CO)[C@@H](O)[C@H](O)[C@H]2O)[C@H](O)[C@H]1O", "note": "[MNG-3, reference compound]", "values": [{"measurement": "δOR-T4L ligand binding activity after solubilization", "setting": "[4]", "value": "higher activity than DDM-solubilized δOR-T4L"}]}
{"smiles": "CCCCCCCCO[C@@H]1O[C@H](CO)[C@@H](O)[C@H](O)[C@H]1O", "note": "[OG, octyl-β-D-glucoside, reference compound]", "values": [{"measurement": "CMP-Sia-GFP extraction yield", "setting": "[5]", "value": "~50", "unit": "%"}, {"measurement": "β2AR WT detected after extraction", "setting": "[6]", "value": "only a very small amount of β2AR WT was detected"}]}
{"smiles": "CCCCCCCCS[C@@H]1O[C@H](CO)[C@@H](O)[C@H](O)[C@H]1O", "note": "[OTG, octyl-β-D-thioglucoside]", "values": [{"measurement": "CMC", "setting": "[7]", "value": 0.28, "unit": "wt %"}]}
